Laboratory results taken from patent publication US12331046B2, “CTPS1 inhibitors and uses thereof” (Nimbus Clotho, Inc., priority 2020, dated 2025).
Several values for one entry are separate records, joined by “and”; a condition that tells them apart may be missing. Equal values may be shown once.

Target: human CTPS1 (Homo sapiens (Human), UniProt P17812)
Assay: hCTPS1 biochemical assay (ADP-Glo)
Details: hCTPS1 25 nM, ATP 120 uM, UTP 160 uM, GTP 60 uM, L-Glutamine 100 uM, 25 degrees C

human CTPS1, sequence (P17812 whole entry): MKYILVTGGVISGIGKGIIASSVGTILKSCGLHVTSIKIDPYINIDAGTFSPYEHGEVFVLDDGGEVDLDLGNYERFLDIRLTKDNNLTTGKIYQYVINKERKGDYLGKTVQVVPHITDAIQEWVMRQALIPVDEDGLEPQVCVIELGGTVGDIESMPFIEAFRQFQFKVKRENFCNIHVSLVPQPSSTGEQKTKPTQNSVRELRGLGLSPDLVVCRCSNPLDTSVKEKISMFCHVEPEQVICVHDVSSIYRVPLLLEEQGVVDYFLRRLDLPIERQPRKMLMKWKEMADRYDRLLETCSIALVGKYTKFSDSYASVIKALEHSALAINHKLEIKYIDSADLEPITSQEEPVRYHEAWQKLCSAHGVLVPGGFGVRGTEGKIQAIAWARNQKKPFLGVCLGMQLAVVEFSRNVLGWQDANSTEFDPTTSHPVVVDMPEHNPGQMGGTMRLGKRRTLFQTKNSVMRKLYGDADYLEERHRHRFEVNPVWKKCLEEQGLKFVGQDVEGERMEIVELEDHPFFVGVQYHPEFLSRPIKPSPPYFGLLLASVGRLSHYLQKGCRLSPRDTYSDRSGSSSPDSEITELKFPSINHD

Row | SMILES | IC50
1 | CCOc1cncc(-c2cnc(C(=O)N[C@@H](CN3CCN(C4CC4)CC3)c3cc(NS(=O)(=O)C4CC4)ccn3)s2)n1 (single isomer, unassigned) [I-119] | < 100 nM
2 | CCOc1cncc(-c2cnc(C(=O)N[C@H](COC)c3cc(NS(=O)(=O)C4CC4)ccn3)s2)n1 [I-188] | < 100 nM
3 | CCOc1cncc(-c2cnc(C(=O)N[C@H](CCN(C)C)c3c(F)ccc(NS(=O)(=O)C4CC4)c3F)s2)n1 (single isomer, unassigned) [I-124] | ≥ 1000 nM
4 | CCOc1cncc(-c2ccc(C(=O)NCc3cc(NS(=O)(=O)C4CC4)ccn3)nc2)n1 [I-16] | < 100 nM
5 | CCOc1cncc(-c2cnc(C(=O)N[C@H](C[C@@H]3CCCCN3)c3cc(NS(=O)(=O)C4CC4)ccn3)s2)n1 (single isomer, unassigned) [I-141] | < 100 nM
6 | CCOc1cncc(-c2cnc(C(=O)N[C@H](CN3CCOCC3(C)C)c3cc(NS(=O)(=O)C4CC4)ccn3)s2)n1 (single isomer, unassigned) [I-117] | < 100 nM
7 | CCOc1cncc(-c2cnc(C(=O)NC(CN3CCCC3)c3cc(NS(=O)(=O)C4CC4)ccn3)s2)n1 (centres unmarked) [I-208] | < 100 nM
8 | CCOc1cncc(-c2cnc(C(=O)N[C@H](CCN3CCOCC3)c3cc(NS(=O)(=O)C4CC4)ccn3)s2)n1 [I-164, (R)—N-(1-(4-(cyclopropanesulfonamido)pyridin-2-yl)-3-morpholinopropyl)-5-(6-ethoxypyrazin-2-yl)thiazole-2-carboxamide] | < 100 nM
9 | CCOc1cncc(-c2cnc(C(=O)N[C@H](CCOC)c3cc(NS(=O)(=O)C4CC4)ccn3)s2)n1 [I-184, (R)—N-(1-(4-(cyclopropanesulfonamido)pyridin-2-yl)-3-methoxypropyl)-5-(6-ethoxypyrazin-2-yl)thiazole-2-carboxamide] | < 100 nM
10 | CCOc1cncc(-c2cnc(C(=O)N[C@H](c3cc(NS(=O)(=O)C4CC4)ccn3)[C@H]3CCOC3)s2)n1 (single isomer, unassigned) [I-95] | < 100 nM
11 | CCOc1cncc(-c2cnc(C(=O)N[C@@H](CCN(C)C)c3cc(NS(=O)(=O)C4CC4)ccn3)s2)n1 [I-190, (S)—N-(1-(4-(cyclopropanesulfonamido)pyridin-2-yl)-3-(dimethylamino)propyl)-5-(6-ethoxypyrazin-2-yl)thiazole-2-carboxamide] | < 100 nM
12 | CCOc1cncc(-c2ccc(C(=O)NCc3cc(NS(=O)(=O)C4CC4)ccn3)c(F)c2)n1 [I-25] | < 100 nM
13 | CCOc1cncc(-c2cnc(C(=O)N[C@H](CCN(C)C)c3cc(NS(=O)(=O)C4CC4)ccn3)s2)n1 [I-189, (R)—N-(1-(4-(cyclopropanesulfonamido)pyridin-2-yl)-3-(dimethylamino)propyl)-5-(6-ethoxypyrazin-2-yl)thiazole-2-carboxamide] | < 100 nM
14 | CCOc1cncc(-c2cnc(C(=O)N[C@H](c3cc(NS(=O)(=O)C4CC4)ccn3)[C@@H]3CCOC3)s2)n1 (single isomer, unassigned) [I-94] | < 100 nM
15 | O=C(NC1(c2csc(NS(=O)(=O)C3CC3)n2)CC1)c1cnc2ccccc2c1 [I-5, N-(1-(2-(cyclopropanesulfonamido)thiazol-4-yl)cyclopropyl)quinoline-3-carboxamide] | ≥ 1000 nM
16 | CCOc1cncc(-c2cnc(C(=O)N[C@@H](CC3CCN(C)CC3)c3cc(NS(=O)(=O)C4CC4)ccn3)s2)n1 [I-99, (S)—N-(1-(4-(cyclopropanesulfonamido)pyridin-2-yl)-2-(1-methylpiperidin-4-yl)ethyl)-5-(6-ethoxypyrazin-2-yl)thiazole-2-carboxamide] | < 100 nM
17 | CCOc1cncc(-c2cnc(C(=O)NC(c3cc(NS(=O)(=O)C4CC4)ccn3)C3CCNCC3)s2)n1 (centres unmarked) [I-153, N-((4-(cyclopropanesulfonamido)pyridin-2-yl)(piperidin-4-yl)methyl)-5-(6-ethoxypyrazin-2-yl)thiazole-2-carboxamide] | < 100 nM
18 | CCOc1cncc(-c2cnc(C(=O)N[C@@H](CCN(C)C)c3c(F)ccc(NS(=O)(=O)C4CC4)c3F)s2)n1 (single isomer, unassigned) [I-125] | ≥ 1000 nM
19 | CCOc1cncc(-c2ccc(C(=O)NCc3ccnc(NS(=O)(=O)N4CCC4)n3)nc2)n1 [I-82, N-((2-(azetidine-1-sulfonamido)pyrimidin-4-yl)methyl)-5-(6-ethoxypyrazin-2-yl)picolinamide] | ≥ 1000 nM
20 | CCOc1cncc(-c2cnc(C(=O)N[C@@H](CN3CCN(C)CC3)c3cc(NS(=O)(=O)C4CC4)ccn3)s2)n1 (single isomer, unassigned) [I-191] | < 100 nM
21 | CCOc1cncc(-c2cnc(C(=O)N[C@@H](CN3CCC3)c3cc(NS(=O)(=O)C4CC4)ccn3)s2)n1 (single isomer, unassigned) [I-221] | 100 to 1000 nM

Row | SMILES | IC50
22 | CCOc1cncc(-c2cnc(C(=O)N[C@@](C)(CCOC)c3cc(NS(=O)(=O)C4CC4)ccn3)s2)n1 [I-163, (S)—N-(2-(4-(cyclopropanesulfonamido)pyridin-2-yl)-4-methoxybutan-2-yl)-5-(6-ethoxypyrazin-2-yl)thiazole-2-carboxamide] | < 100 nM
23 | CCOc1cncc(-c2cnc(C(=O)N[C@H](CN(C)C)c3cc(NS(=O)(=O)C4CC4)ccn3)s2)n1 (single isomer, unassigned) [I-233] | < 100 nM
24 | CCOc1cncc(-c2cnc(C(=O)N3CCC[C@@H]3c3ccnc(NS(=O)(=O)C4CC4)n3)s2)n1 [I-270, N-[4-[(2R)-1-[5-(6-ethoxypyrazin-2-yl)-1,3-thiazole-2-carbonyl]pyrrolidin-2-yl]pyrimidin-2-yl]cyclopropanesulfonamide] | 100 to 1000 nM
25 | CCOc1cncc(-c2cnc(C(=O)N[C@H](CN3CCNCC3)c3cc(NS(=O)(=O)C4CC4)ccn3)s2)n1 [I-205, (R)—N-(1-(4-(cyclopropanesulfonamido)pyridin-2-yl)-2-(piperazin-1-yl)ethyl)-5-(6-ethoxypyrazin-2-yl)thiazole-2-carboxamide] | < 100 nM
26 | CCOc1cncc(-c2ccc(C(=O)NCc3cc(NS(=O)(=O)C4CC4)cnn3)nc2)n1 [I-37, N-[(5-cyclopropanesulfonamidopyridazin-3-yl)methyl]-5-(6-ethoxypyrazin-2-yl)pyridine-2-carboxamide] | < 100 nM
27 | CCOc1cncc(-c2cnc(C(=O)NCc3cc(F)cc(NS(=O)(=O)C4CC4)c3F)s2)n1 [I-250, N-[(3-cyclopropanesulfonamido-2,5-difluorophenyl)methyl]-5-(6-ethoxypyrazin-2-yl)-1,3-thiazole-2-carboxamide] | < 100 nM
28 | CCOc1cncc(-n2ccc(C(=O)NC3(c4cccc(NS(=O)(=O)C(F)F)c4)CC3)n2)n1 [I-282, N-[1-[3-(difluoromethanesulfonamido)phenyl]cyclopropyl]-1-(6-ethoxypyrazin-2-yl)pyrazole-3-carboxamide] | < 100 nM and ≥ 1000 nM
29 | CCOc1cncc(-c2cnc(C(=O)N[C@@H](CCN3CC[C@H](F)C3)c3cc(NS(=O)(=O)C4CC4)ccn3)s2)n1 [I-129, N—((S)-1-(4-(cyclopropanesulfonamido)pyridin-2-yl)-3-((S)-3-fluoropyrrolidin-1-yl)propyl)-5-(6-ethoxypyrazin-2-yl)thiazole-2-carboxamide] | < 100 nM
30 | COc1cncc(-c2ccc(C(=O)NCc3cc(NS(=O)(=O)C4CC4)ccn3)nc2)n1 [I-24] | < 100 nM
31 | CCOc1cncc(-c2ccc(C(=O)NC3(c4csc(N(C)S(=O)(=O)C5CC5)n4)CC3)nc2)n1 [I-14, 5-(6-ethoxypyrazin-2-yl)-N-(1-(2-(N-methylcyclopropanesulfonamido)thiazol-4-yl)cyclopropyl)picolinamide] | ≥ 1000 nM
32 | Cc1cc2c(=O)[nH]c3ccc(C(=O)NCc4cc(NS(=O)(=O)C5CC5)ccn4)cc3n2c1 [I-162] | 100 to 1000 nM
33 | CCOc1cncc(-c2cnc(C(=O)N[C@H](CN3[C@H](C)COC[C@@H]3C)c3cc(NS(=O)(=O)C4CC4)ccn3)s2)n1 (single isomer, unassigned) [I-110] | < 100 nM
34 | CCOc1cncc(-c2cnc(C(=O)N[C@H](C[C@H]3CCCCN3C)c3cc(NS(=O)(=O)C4CC4)ccn3)s2)n1 [I-145, N—((R)-1-(4-(cyclopropanesulfonamido)pyridin-2-yl)-2-((R)-1-methylpiperidin-2-yl)ethyl)-5-(6-ethoxypyrazin-2-yl)thiazole-2-carboxamide] | < 100 nM
35 | CCOc1cncc(-c2cnc(C(=O)N[C@@](C)(COC)c3cc(NS(=O)(=O)C4CC4)ccn3)s2)n1 [I-91, (R)—N-(2-(4-(cyclopropanesulfonamido)pyridin-2-yl)-1-methoxypropan-2-yl)-5-(6-ethoxypyrazin-2-yl)thiazole-2-carboxamide] | 100 to 1000 nM
36 | Cc1cn(-c2ccc(C(=O)NC3(c4csc(NS(=O)(=O)C5CC5)n4)CC3)nc2)cn1 [I-8, N-(1-(2-(cyclopropanesulfonamido)thiazol-4-yl)cyclopropyl)-5-(4-methyl-1H-imidazol-1-yl)picolinamide] | ≥ 1000 nM
37 | CCOc1cncc(-c2ccc(C(=O)NCc3cc(NS(=O)(=O)C4CC4)ncn3)cc2)n1 [I-29, N-((6-(cyclopropanesulfonamido)pyrimidin-4-yl)methyl)-4-(6-ethoxypyrazin-2-yl)benzamide] | < 100 nM
38 | CCOC[C@@H](NC(=O)c1ncc(-c2cncc(OCC)n2)s1)c1cc(NS(=O)(=O)C2CC2)ccn1 [I-97, (S)—N-(1-(4-(cyclopropanesulfonamido)pyridin-2-yl)-2-ethoxyethyl)-5-(6-ethoxypyrazin-2-yl)thiazole-2-carboxamide] | < 100 nM
39 | O=C(NC1(c2csc(NS(=O)(=O)C3CC3)n2)CC1)c1ccc2ccccc2c1 [I-1, N-(1-(2-(cyclopropanesulfonamido)thiazol-4-yl)cyclopropyl)-2-naphthamide] | 100 to 1000 nM
40 | CCOc1cncc(-c2ccc(C(=O)NCc3cccc(NS(=O)(=O)C4CC4)c3)nc2)n1 [I-18, N-(3-(cyclopropanesulfonamido)benzyl)-5-(6-ethoxypyrazin-2-yl)picolinamide] | 100 to 1000 nM
41 | CCOc1cncc(-c2cnc(C(=O)N[C@@H](c3cc(NS(=O)(=O)C4CC4)ccn3)[C@H]3C[C@H](N(C)C)C3)s2)n1 (single isomer, unassigned) [I-107, N-((4-(cyclopropanesulfonamido)pyridin-2-yl)((1r, 3r)-3-(dimethylamino)cyclobutyl)methyl)-5-(6-ethoxypyrazin-2-yl)thiazole-2-carboxamide] | < 100 nM
